Reference: patent US11690822B2, “Method for treating non-compaction cardiomyopathy” (EXCELSIOR PHARMATECH LABS, priority 2018, dated 2023)

Tests used:
[1] = system: LVNC cardiomyocytes; experiment: Seahorse assay of mitochondrial function (OCR, ECAR) in LVNC-hiPSC-derived cardiomyocytes; format: cell-based, human; details: 5 μM, iH LVNC cardiomyocytes, FIG. 2C
Excerpt: Human induced pluripotent stem cell (hiPSC) lines respectively derived from patients with left ventricular non-compaction cardiomyopathy (LVNC) and a normal healthy […] were reprogrammed through two approaches; one line of each patient was reprogrammed from skin cells by lentivirus carrying four Yamanaka factors (Klf4, Myc, Sox2, Oct4; conducted by Dr. Hong-Nerng Ho at NTU) and the other line was reprogrammed from peripheral blood monocytes (PBMC) by Sendai virus carrying the four Yamanaka factors (conducted by Dr. Joseph C. Wu at Stanford University). Patients consented to collect patients' tissues/blood cells for genetic examination, reprogramming to hiPSC, and pharmacological studies. […] Cell shortening was measured by the Ionoptix system (Westwood, Mass., USA), and mitochondrial function was assessed by an Agilent seahorse analyzer (Seahorse Bioscience, MA, USA).
Seahorse assay was performed on day 70 to measure mitochondrial OCR (Oxygen Consumption Rate) and ECAR (Extracellular Acidification Rate) under the conditions in the sequential adding of the XF mito stress test kit with the indicated reagents by the arrows. […] The relationship of OCR vs. ECAR was measured under the conditions of basal (before oligomycin) and maximum respiratory capacity (after FCCP).

[2] = system: LVNC cardiomyocytes; experiment: Cell shortening (Ionoptix) and inotropic response to isoprenaline in LVNC-hiPSC-CMs; format: cell-based, human; details: 5 μM; isoprenaline 0.03, 0.1, 1 μM; treatment day 30 through day 70; FIG. 3B
Excerpt: Human induced pluripotent stem cell (hiPSC) lines respectively derived from patients with left ventricular non-compaction cardiomyopathy (LVNC) and a normal healthy […] were reprogrammed through two approaches; one line of each patient was reprogrammed from skin cells by lentivirus carrying four Yamanaka factors (Klf4, Myc, Sox2, Oct4; conducted by Dr. Hong-Nerng Ho at NTU) and the other line was reprogrammed from peripheral blood monocytes (PBMC) by Sendai virus carrying the four Yamanaka factors (conducted by Dr. Joseph C. Wu at Stanford University). Patients consented to collect patients' tissues/blood cells for genetic examination, reprogramming to hiPSC, and pharmacological studies. Drug effect was validated via testing the same drug at the same dose in human cardiomyocytes derived from the two lines of the same patient with at least three independent repeats in each line. Cell shortening was measured by the Ionoptix system (Westwood, Mass., USA), and mitochondrial function was assessed by an Agilent seahorse analyzer (Seahorse Bioscience, MA, USA).

[3] = system: LVNC cardiomyocytes; experiment: Proteomic analysis (LC-MS/MS) of LVNC cardiomyocytes treated with or without simvastatin; format: cell-based, human
Description: The samples were further digested by trypsin. After being desalted and dried, LC-MS/MS analysis was performed by the LTQ-Orbitrap Velos mass spectrometer system. The peptide and protein group IDs were obtained by MASCOT database searching with precursor mass accuracy of 7 ppm and MS/MS accuracy of 0.5 Da. The large mass-spectrometric raw data were further analyzed by the MaxQuant software based on the Uniprot human database with a label-free quantification method and followed by the statistical analysis using the Perseus software.

[4] = system: Tnnt2^R154W/+::Mypn^S1291T/+ LVNC mice; experiment: Echocardiography of cardiac function (LVEF) in LVNC mice; format: in vivo, mouse
Description: Tnnt2(R154W)- and Mypn(S1291T)-knockin mice on C57BL/6j background were generated by Gene Knockout Mouse Core Laboratory of National Taiwan University Center of Genomic Medicine. Genetically heterozygous LVNC mice (Tnnt2(R154W)^+/−:: Mypn(S1291T)^+/−) were obtained from crossing Tnnt2(R154W)^+/− and Mypn(S1291T)^+/− mice. PCR and DNA sequencing were performed to confirm the genotype. All animal procedures and protocols were approved by AAALAC-accredited facility.
The cardiac motion function of LVNC mice was measured through echocardiography in M-mode by the VisualSonic vevo 2100 imaging system (VisualSonic Inc., Toronto, Canada). Cardiac glucose metabolic rate of LVNC mice was measured by dynamic small animal positron emission tomography (PET) observation under anesthetization by 2% isoflurane inhalation. ^18F-FDG (fluorodeoxyglucose 18F) uptake in LVNC mouse heart was measured for the analysis of cardiac glucose metabolic rate (MRGlu) by dynamic small animal positron emission tomography (PET) to examine the changes in cardiometabolism.
Repeated measures two-way ANOVA with multiple comparisons by the Tukey test was used to distinguish the difference in cell shortening velocity between DMSO- and simvastatin-groups on day 50 and day 70 in LVNC-hiPSC-CMs of iFa and iH. […]

Cc1cc(C)c(CNC(=O)c2cc(-c3ccc(N4CCN(C)CC4)nc3)cc3c2c(C)cn3C(C)C)c(=O)[nH]1 [GSK503]
OCR and ECAR of LVNC cardiomyocytes (mitochondrial function) [1]: does not significantly improve OCR or ECAR | OCR and ECAR of LVNC cardiomyocytes (mitochondrial function) ([1]; listed as gsk): did not change cardiac mitochondrial dysfunction

O=C(CCCCCCC(=O)Nc1ccccc1)NO [SAHA]
cardiac contraction and positive inotropic response to isoprenaline-induced β-stimulation [2]: unable to improve LVNC cardiac functions

CC(C)c1c(C(=O)Nc2ccccc2)c(-c2ccccc2)c(-c2ccc(F)cc2)n1CC[C@@H](O)C[C@@H](O)CC(=O)O [atorvastatin]
cardiac contraction and positive inotropic response to isoprenaline-induced β-stimulation [2]: the efficacy of simvastatin is better than those of the other statins

CC[C@H](C)C(=O)O[C@H]1C[C@@H](C)C=C2C=C[C@H](C)[C@H](CC[C@@H]3C[C@@H](O)CC(=O)O3)[C@H]21 [lovastatin]
cardiac contraction and positive inotropic response to isoprenaline-induced β-stimulation [2]: the efficacy of simvastatin is better than those of the other statins

CCC(C)(C)C(=O)O[C@H]1C[C@@H](C)C=C2C=C[C@H](C)[C@H](CC[C@@H]3C[C@@H](O)CC(=O)O3)[C@H]21 [simvastatin]
number of proteins highly expressed in both healthy/iH,ctrl and iH,s/iH,ctrl ([3]; iH LVNC cardiomyocytes, FIG. 4C): 69 proteins | number of proteins significantly upregulated in both iF,s/iF,ctrl and iH,s/iH,ctrl ([3]; two LVNC patients (iFa & iH), FIG. 4D): 27 proteins | slope of linear regression of LVEF % vs. day ([4]; S(d1-84): treated initial 84 days, then 42 days drug holiday, P=0.1326, R square=0.3352, not significantly deviated from zero): 0.05031 | slope of linear regression of LVEF % vs. day ([4]; S(d1-126): continuous treatment 126 days, 3.5 mg/kg/day osmotic pump, P=0.0297, R square=0.6445, significantly deviated from zero): 0.1098
